Measured values: ChEMBL document CHEMBL1138730, “The synthesis and evaluation of [2.2.1]-bicycloazahydantoins as androgen receptor antagonists” (Bioorg Med Chem Lett, 2004)

Legend:
Androgen receptor [1] = molecular target: Androgen receptor (Homo sapiens, UniProt P10275); details: lncap
Description: In vitro antagonistic activity against mutant androgen receptor of LNCap cells

Androgen receptor [2] = molecular target: T1, Androgen receptor (Homo sapiens, UniProt P10275); assay: Displacement of [3H]DHT from androgen receptor of human MDA-453 cells
T1 sequence (P10275 whole entry): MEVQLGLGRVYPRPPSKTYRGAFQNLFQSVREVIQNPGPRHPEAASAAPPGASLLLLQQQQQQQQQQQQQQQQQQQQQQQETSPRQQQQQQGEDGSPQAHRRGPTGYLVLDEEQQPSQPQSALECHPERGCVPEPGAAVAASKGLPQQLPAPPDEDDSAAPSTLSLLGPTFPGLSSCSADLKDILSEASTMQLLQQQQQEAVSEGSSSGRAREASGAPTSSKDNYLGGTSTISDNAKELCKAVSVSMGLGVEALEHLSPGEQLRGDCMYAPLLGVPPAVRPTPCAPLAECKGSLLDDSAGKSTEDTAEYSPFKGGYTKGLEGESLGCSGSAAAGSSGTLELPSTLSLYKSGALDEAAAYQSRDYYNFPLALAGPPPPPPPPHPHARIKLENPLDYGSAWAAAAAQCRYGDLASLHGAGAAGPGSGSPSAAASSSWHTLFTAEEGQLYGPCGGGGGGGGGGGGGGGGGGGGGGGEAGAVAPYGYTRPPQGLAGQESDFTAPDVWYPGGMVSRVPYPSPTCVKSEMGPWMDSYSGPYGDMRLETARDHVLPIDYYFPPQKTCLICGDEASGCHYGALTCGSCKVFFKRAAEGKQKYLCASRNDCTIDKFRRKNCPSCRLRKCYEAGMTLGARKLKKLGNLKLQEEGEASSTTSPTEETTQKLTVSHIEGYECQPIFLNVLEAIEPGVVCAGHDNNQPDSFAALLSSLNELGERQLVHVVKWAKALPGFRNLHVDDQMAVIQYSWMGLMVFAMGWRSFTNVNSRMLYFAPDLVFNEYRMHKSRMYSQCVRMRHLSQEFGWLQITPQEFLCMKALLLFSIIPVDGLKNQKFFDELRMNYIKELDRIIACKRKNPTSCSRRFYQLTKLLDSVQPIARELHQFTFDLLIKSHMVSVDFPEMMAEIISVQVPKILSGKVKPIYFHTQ

Androgen receptor [3] = molecular target: T1, Androgen receptor
Description: In vitro antagonistic activity against androgen receptor of MDA-453 cells

Row | SMILES | IC50 (Androgen receptor [1]) | Ki (Androgen receptor [2]) | IC50 (Androgen receptor [3])
1 | CC(C)(C)OC(=O)N1C[C@@H]2C[C@H]1[C@@H]1C(=O)N(c3ccc(C#N)cc3)C(=O)N21 | 4970 nM | 240 nM | 2540 nM
2 | O=C1[C@H]2[C@@H]3C[C@@H](CN3C(=O)Oc3ccc(F)cc3)N2C(=O)N1c1ccc([N+](=O)[O-])c2ccccc12 | 30000 nM | 10 nM | 340 nM
3 | N#Cc1ccc(N2C(=O)[C@H]3[C@@H]4C[C@@H](CN4C(=O)Oc4ccc(F)cc4)N3C2=O)cc1C(F)(F)F | 3920 nM | 10 nM | 200 nM
4 | N#Cc1ccc(N2C(=O)[C@H]3[C@@H]4C[C@@H](CN4C(=O)c4ccccc4)N3C2=O)cc1C(F)(F)F | 2600 nM | 120 nM | 300 nM
5 | CC(C)(C)OC(=O)N1C[C@H]2C[C@@H]1[C@H]1C(=O)N(c3ccc([N+](=O)[O-])cc3)C(=O)N21 | 2390 nM | 230 nM | 250 nM
6 | O=C1[C@H]2[C@@H]3C[C@@H](CN3C(=O)c3ccccc3)N2C(=O)N1c1ccc([N+](=O)[O-])cc1 | 2540 nM | 10 nM | > 5000 nM
7 | O=C1[C@@H]2[C@@H]3CC[C@@H](C3)[C@@H]2C(=O)N1c1ccc([N+](=O)[O-])c(C(F)(F)F)c1 | > 5000 nM | 5 nM | 10 nM
8 | CC(C)(C)OC(=O)N1C[C@@H]2C[C@H]1[C@]1(C)C(=O)N(c3ccc(C#N)c(C(F)(F)F)c3)C(=O)N21 | 10400 nM |  | 780 nM
9 | CCCCc1ccc(C(=O)N2C[C@@H]3C[C@H]2[C@@H]2C(=O)N(c4ccc([N+](=O)[O-])cc4)C(=O)N32)cc1 | 4750 nM | 70 nM | 60 nM
10 | CCCCc1ccc(C(=O)N2C[C@@H]3C[C@H]2[C@@H]2C(=O)N(c4ccc(C#N)cc4)C(=O)N32)cc1 | 6800 nM | 100 nM | 580 nM
11 | CC(C)(C)OC(=O)N1C[C@@H]2C[C@H]1[C@H]1C(=O)N(c3ccc([N+](=O)[O-])c4ccccc34)C(=O)N21 | 5860 nM |  | 1330 nM
12 | CC(C)(C)OC(=O)N1C[C@@H]2C[C@H]1[C@H]1C(=O)N(c3ccc(C#N)c(C(F)(F)F)c3)C(=O)N21 | > 5000 nM | 180 nM | 640 nM
13 | N#Cc1ccc(N2C(=O)[C@H]3[C@@H]4C[C@@H](CN4C(=O)Oc4ccc(F)cc4)N3C2=O)c2ccccc12 | 1870 nM | 40 nM | 580 nM
14 | CC(C)(C)OC(=O)N1C[C@@H]2C[C@H]1[C@@H]1C(=O)N(c3ccc(C#N)c(C(F)(F)F)c3)C(=O)N21 | 4380 nM | 40 nM | 770 nM
15 | O=C1[C@H]2[C@H]3CC[C@H](C3)N2C(=O)N1c1ccc([N+](=O)[O-])c2ccccc12 | > 5000 nM | 1 nM | 1300 nM
16 | CC(C)(C)OC(=O)N1C[C@@H]2C[C@H]1[C@@H]1C(=O)N(c3ccc([N+](=O)[O-])c4ccccc34)C(=O)N21 | 4430 nM | 60 nM | 3320 nM
17 | CC(C)(C)OC(=O)N1C[C@@H]2C[C@H]1[C@H]1C(=O)N(c3ccc(C#N)cc3)C(=O)N21 | 3510 nM | 190 nM | > 5000 nM
18 | CC(C)(C)OC(=O)N1C[C@H]2C[C@@H]1[C@H]1C(=O)N(c3ccc(C#N)c(C(F)(F)F)c3)C(=O)N21 | > 5000 nM | > 5000 nM | > 5000 nM
